# In PubChem BioAssay AID1552 (Sanford-Burnham Center for Chemical Genomics, 2009):
# Activity calls are given as the source filed them. The rule behind the calls is not given here.
# Molecular target: Ubiquitin-conjugating enzyme E2 N (Homo sapiens) (UniProt P61088)
# Assay: UBE2N binders by NMR, biophysical, purified protein (AID 1552)
# Conditions: NMR binding to purified UBE2N
# Ubiquitin-conjugating enzyme E2 N (Homo sapiens), sequence (P61088 whole entry, looked up): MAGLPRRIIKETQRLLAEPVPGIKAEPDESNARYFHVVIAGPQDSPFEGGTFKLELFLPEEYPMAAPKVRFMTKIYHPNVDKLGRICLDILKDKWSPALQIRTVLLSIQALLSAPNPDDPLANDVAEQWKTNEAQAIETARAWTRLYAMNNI
row,Structure (SMILES),Kd
1,CC(=O)c1cc(-c2nc3ccccc3n2C)n(C)c1,> 4 mM (inactive)
2,CN(C)S(=O)(=O)c1cccc(N)c1,> 4 mM (inactive)
3,COc1cc2nc[nH]c(=O)c2cc1OC,> 4 mM (inactive)
4,O=C(Nc1ccc(N2CCCC2=O)cc1)c1cccc(F)c1,> 4 mM (inactive)
5,O=C(O)C1CC(=O)N(Cc2ccc(F)cc2)C1 (configuration not stated),> 4 mM (inactive)
6,COC(=O)c1cncn1C,> 4 mM (inactive)
7,CCOc1cc(C)c(Cl)cc1S(=O)(=O)N(C)C,> 4 mM (inactive)
8,O=c1ccc2c([nH]1)CCCC2,> 4 mM (inactive)
9,O=C(Nc1ccncc1)c1cncc(Br)c1,> 4 mM (inactive)
10,COC(=O)c1nc(-c2ccccc2)oc1N(C)C,> 4 mM (inactive)
11,CC1SC(=NC(=O)c2ccncc2)NC1=O (configuration not stated),> 4 mM (inactive)
12,O=c1[nH]c(=S)[nH]c2c1CCC2,> 4 mM (inactive)
13,COc1ccc(CN2CCC(O)CC2)c(O)c1,> 4 mM (inactive)
14,O=c1cccc2n1CC1CC2CN2CCCC[C@@H]12 (some centres not stated),> 4 mM (inactive)
15,CN1C(=O)c2ccc(N=C3NC(=O)CS3)cc2C1=O,> 4 mM (inactive)
16,O=C(O)CS(=O)(=O)c1ccccc1[N+](=O)[O-],> 4 mM (inactive)
17,Nc1c(C(=O)O)sc2ncccc12,> 4 mM (inactive)
18,O=C(Nc1c[nH]c(=O)[nH]c1=O)c1ccccc1F,> 4 mM (inactive)
19,CC(C)/C(O)=C1/C(=O)O[C@@H](c2ccoc2)[C@]2(C)C(O)[C@@H](O)[C@@]34OC5(C)OC67CC(C)(C(O)[C@]6(O)[C@@H](O)[C@]3(O5)C12)[C@H](CC(=O)O)[C@]74C (some centres not stated),> 4 mM (inactive)
20,CC1(C)CC2(C)N(N)C(=O)CN2C(=S)N1 (configuration not stated),> 4 mM (inactive)
21,O=C(Nc1ncccn1)c1cccc(F)c1,> 4 mM (inactive)
22,COc1cnn(Cc2ccccc2)c(=O)c1Cl,> 4 mM (inactive)
23,Cc1c(C(=O)Nn2cnnc2)oc2ccccc12,> 4 mM (inactive)

row,Structure (SMILES),Kd
1,Cc1nnsc1C(=O)Nc1cccc(S(N)(=O)=O)c1,> 4 mM (inactive)
2,COc1cc([C@@H]2c3cc4c(c(O)c3C[C@H]3COC(=O)[C@@H]32)OCO4)cc(OC)c1OC,> 4 mM (inactive)
3,O=c1c(O)c(-c2ccccc2)oc2cc(O)ccc12,> 4 mM (inactive)
4,Cc1cc(C(=O)Nc2sc3c(c2C#N)CCC3)no1,> 4 mM (inactive)
5,O=C(O)CCC(=O)Nc1nnc(C(F)(F)F)s1,> 4 mM (inactive)
6,Nc1cccc(NC(=O)c2ccco2)c1,> 4 mM (inactive)
7,Cc1c(CO)cnn1-c1ccccc1,> 4 mM (inactive)
8,CC(=O)Nc1cccc(-c2nnc3n2CC(C)S3)c1 (configuration not stated),> 4 mM (inactive)
9,O=C(CNC(=O)c1cccs1)NC1=NCCS1,> 4 mM (inactive)
10,Cc1ccc(N2CCN(C(=O)c3ccccc3)CC2)c(C)c1,> 4 mM (inactive)
11,Cc1cc(C)c2nncn2n1,> 4 mM (inactive)
12,NC(=O)c1ccc(N=Cc2ccc[nH]2)cc1,> 4 mM (inactive)
13,O=c1[nH]cc(S(=O)(=O)N2CCc3ccccc32)c(=O)[nH]1,> 4 mM (inactive)
14,Cc1c(C(=O)N2CCOCC2)oc2c1C(=O)CC(C)(C)C2,> 4 mM (inactive)
15,COc1cc(O)cc(/C=C/c2ccccc2)c1,> 4 mM (inactive)
16,Nc1cccc(-n2cnnn2)c1,> 4 mM (inactive)
17,Cc1nc(-c2ccccc2)sc1CN,> 4 mM (inactive)
18,O=C1CSC(=Nc2ccc(C(=O)O)cc2)N1,> 4 mM (inactive)
19,CC(=O)c1cc(C)ccc1O,> 4 mM (inactive)
20,CCNC(=S)Nc1c(C)n(C)n(-c2ccccc2)c1=O,> 4 mM (inactive)
21,Cc1cc(C)c2ccc[n+]([O-])c2c1O,> 4 mM (inactive)
22,Cn1ncc(CO)c1-c1ccccc1,> 4 mM (inactive)
23,Nn1cnn2c(SCc3ccccc3)nnc12,> 4 mM (inactive)

row,Structure (SMILES),Kd
1,Cn1c(=O)c2[nH]cnc2n(-c2ccccc2)c1=O,> 4 mM (inactive)
2,CCOC(=O)c1cnc2n(c1=O)CCS2,> 4 mM (inactive)
3,O=C(c1cccc(C(F)(F)F)c1)N1CCCC1,> 4 mM (inactive)
4,COCc1nn2c(N)c(C#N)cnc2c1-c1ccccc1,> 4 mM (inactive)
5,CC(=O)NC(C)C12CC3CC(CC(C(=O)O)(C3)C1)C2 (configuration not stated),> 4 mM (inactive)
6,O=C1CCC(=O)N1c1cccc([N+](=O)[O-])c1,> 4 mM (inactive)
7,NC(=O)c1oc2ccccc2c1N,> 4 mM (inactive)
8,COc1cc(C)c(Cl)cc1S(=O)(=O)N(C)C,> 4 mM (inactive)
9,CC1(C)C(=O)C=C[C@@]2(C)C1CC(=O)[C@]1(C)C2CC[C@@]2(C)[C@H](c3ccoc3)OC(=O)[C@H]3O[C@]321 (some centres not stated),> 4 mM (inactive)
10,C[C@@H]1CC[C@@]2(OC1)OC1C(O)C3C4CC[C@H]5C[C@H](O[C@@H]6O[C@H](CO)[C@H](O[C@@H]7O[C@H](CO)[C@@H](O)[C@H](O[C@@H]8OC[C@@H](O)[C@H](O)[C@H]8O)[C@H]7O[C@@H]7O[C@H](CO)[C@H](O)[C@H](O[C@@H]8O[C@H](CO)[C@@H](O)[C@H](O)[C@H]8O)[C@H]7O)[C@H](O)[C@H]6O)[C@H](O)C[C@]5(C)C4CC[C@]3(C)C1[C@@H]2C (some centres not stated),> 4 mM (inactive)
11,Cc1c(-c2ccc(F)cc2)[n+](=O)c2c(n1[O-])CCC2,> 4 mM (inactive)
12,NC(=O)c1ccc(SCC(=O)O)c([N+](=O)[O-])c1,> 4 mM (inactive)
13,Cc1ccc(CNc2ccc(O)cc2)cc1,> 4 mM (inactive)
14,CC(=O)Nc1sccc1C(=O)NC(N)=O,> 4 mM (inactive)
15,O=C(Nc1ccccc1Cl)c1cnccn1,> 4 mM (inactive)
16,CNC(=O)Nc1cccc(C(F)(F)F)c1,> 4 mM (inactive)
17,COC(=O)c1ccccc1C,> 4 mM (inactive)
18,CN(C)c1ccc(/C=C2/NC(=S)NC2=O)cc1,> 4 mM (inactive)
19,Cn1nc(C(=O)N2CCCC2)c2ccccc2c1=O,> 4 mM (inactive)
20,O=C(Nc1ccccc1C(F)(F)F)c1cnccn1,> 4 mM (inactive)
21,Cc1cccc(CSc2nncc(=O)[nH]2)c1,> 4 mM (inactive)
22,CC(=O)O[C@H]1CC[C@@]2(C)C(CC[C@]3(C)C2C(=O)C=C2C4[C@@H](C)[C@H](C)CC[C@]4(C(=O)O)CC[C@]23C)C1(C)C (some centres not stated),> 4 mM (inactive)
23,Cc1ccc(CCC(N)=O)o1,> 4 mM (inactive)

row,Structure (SMILES),Kd
1,Cn1ncc2c(=O)n(CC(=O)c3ccccc3)cnc21,> 4 mM (inactive)
2,Cc1cccc(NC(=O)CN2C(=O)CNC2=O)c1,> 4 mM (inactive)
3,CNc1nc(SC)nc(N2CCOCC2)n1,> 4 mM (inactive)
4,COc1ccc(-c2coc3c(O)c(OC)ccc3c2=O)cc1,> 4 mM (inactive)
5,C[C@H]1C[C@@H](O)[C@]2(O)[C@@]13CC(=O)OC[C@@]2(C)[C@](C)(O)C(=O)C3,> 4 mM (inactive)
6,Cc1ccc(S(=O)(=O)CC(N)=O)cc1,> 4 mM (inactive)
7,CC(=O)OCC(OC(C)=O)C(OC(C)=O)C(OC(C)=O)C(OC(C)=O)C(COC(C)=O)OC(C)=O (configuration not stated),> 4 mM (inactive)
8,CC(=O)Nc1ccc(Nc2nnc(C)c(=O)[nH]2)cc1,> 4 mM (inactive)
9,O=c1[nH]cc(Nc2ccccc2)c(=O)[nH]1,> 4 mM (inactive)
10,CC1(C)C2CC(=O)[C@]3(C)C(CC[C@@]4(C)[C@H](c5ccoc5)OC(=O)C5OC543)[C@@]2(C)[C@@H](O)C[C@H]1O (some centres not stated),> 4 mM (inactive)
11,Cc1cccc(N2CCN(C(=O)c3ccncc3)CC2)c1C,> 4 mM (inactive)
12,COc1cccc(OC)c1C(=O)N1CCOCC1,> 4 mM (inactive)
13,O=c1oc(-c2ccccc2)nc2c1cnn2-c1ccccc1,> 4 mM (inactive)
14,CCOC(=O)Cc1nc2ccccc2[nH]1,> 4 mM (inactive)
15,O=C(O)c1onc2ccccc12,> 4 mM (inactive)
16,c1ccc2[nH]c(-c3cscn3)nc2c1,> 4 mM (inactive)
17,CN1C(=O)CC[C@H]1c1cccnc1,> 4 mM (inactive)
18,Oc1ccc(C(=S)N2CCCCC2)cc1Cl,> 4 mM (inactive)
19,O=C(O)Cn1cc(C(=O)c2cccs2)c2ccccc21,> 4 mM (inactive)
20,COCCn1c(SC)nc2c1c(=O)[nH]c(=O)n2C,> 4 mM (inactive)
21,c1ccc(-c2noc(-c3ccc4c(c3)OCO4)n2)nc1,> 4 mM (inactive)
22,C=CC(C1=CC(=O)C(OC)=CC1=O)c1ccccc1 (configuration not stated),> 4 mM (inactive)
23,Nc1c(/C=C2\C=Nc3ccccc32)c(=O)nc2scnn12,> 4 mM (inactive)

row,Structure (SMILES),Kd
1,NC(=O)CCN1C(=O)c2ccccc2C1=O,> 4 mM (inactive)
2,CCN(CC)S(=O)(=O)c1ccc(F)cc1,> 4 mM (inactive)
3,Cc1nc(-c2cccc(C(=O)O)c2)cs1,> 4 mM (inactive)
4,CC(=O)c1cccc(N=C2NC(=O)CS2)c1,> 4 mM (inactive)
5,O=C(Nc1ccccc1CO)c1ccccc1F,> 4 mM (inactive)
6,COC1(C)CCC2OC2(C)CCC2C1CC2(C)C (configuration not stated),> 4 mM (inactive)
7,COC(=O)C1[C@H]2C[C@H]3c4[nH]c5ccccc5c4CCN3C[C@@H]2CC[C@@H]1O (some centres not stated),> 4 mM (inactive)
8,O=C(c1ccc(F)cc1)N1CCOCC1,> 4 mM (inactive)
9,CC(C)(C)c1ccc(SCC(N)=O)cc1,> 4 mM (inactive)
10,O=C(O)C1CSC(c2ccco2)N1 (configuration not stated),> 4 mM (inactive)
11,NC(=O)CSc1ccc(-c2ccco2)nn1,> 4 mM (inactive)
12,C=CC1=C(C)/C(=C/c2[nH]c(Cc3[nH]c(/C=C4\NC(=O)C(C)=C4C=C)c(C)c3CCC(=O)O)c(CCC(=O)O)c2C)NC1=O,> 4 mM (inactive)
13,C=C1C2=CC(=O)O[C@@H](c3ccoc3)[C@]2(C)CCC1[C@@]1(C)C=CC(=O)C(C)(C)[C@@H]1CC(=O)OC (some centres not stated),> 4 mM (inactive)
14,COc1cnn(-c2ccccc2)c(=O)c1N(C)C,> 4 mM (inactive)
15,NCc1cccc2c1OCCO2,> 4 mM (inactive)
16,Cc1cc(=O)[nH]c(NCc2cccnc2)n1,> 4 mM (inactive)
17,COc1nc(C)ccc1-c1noc(-c2ccncc2)n1,> 4 mM (inactive)
18,COc1cc(/C=C/C(=O)O)cc(OC)c1OC,> 4 mM (inactive)
19,O=C1CSC(=Nc2ccc(Cl)cc2)N1,> 4 mM (inactive)
20,c1ccc2nc3c(nc2c1)CCc1nonc1-3,> 4 mM (inactive)
